# Assays:
# Type in all cases: cell-based
# K. pneumoniae ESBL 8 #2 = assay: Broth microdilution MIC (strain enzymes: SHV-12, TEM-1)
# E. coli ESBL 5 = assay: Broth microdilution MIC (strain enzymes: CTX-M15, TEM-1)
# K. pneumoniae ESBL 7 #2 = assay: Broth microdilution MIC (strain enzymes: SHV-12, CTX-M15, TEM-1)
# K. oxytoca 496 #2 = assay: Broth microdilution MIC (strain enzymes: SHV-105, TEM-1)
# K. pneumoniae 319478 = assay: Broth microdilution MIC (strain enzymes: SHV-12, CTX-M3 and TEM-1)
# E. coli 2150 = assay: Broth microdilution MIC (strain enzymes: SHV-3, TEM-1)
smiles,measurement,setting,value
"CCC(=O)N[C@H]1Cc2cccc(C(=O)O)c2OB1O [Compound 2, (R)-2-hydroxy-3-propionamido-3,4-dihydro-2H-benzo[e][1,2]oxaborinine-8-carboxylic acid]",MIC of cefalexin (LEX),K. pneumoniae ESBL 8 #2; with inhibitor at 2 μg/mL,0.25 µg/mL
same,MIC of cefdinir (CDR),K. pneumoniae ESBL 8 #2; with inhibitor at 2 μg/mL,0.25 µg/mL
same,MIC of cefixime (CFM),K. pneumoniae ESBL 8 #2; with inhibitor at 2 μg/mL,1 µg/mL
same,MIC of ceftibuten (CTB),K. pneumoniae ESBL 8 #2; with inhibitor at 2 μg/mL,0.125 µg/mL
same,MIC of cefalexin (LEX),K. pneumoniae ESBL 8 #2; with inhibitor at 4 μg/mL,0.25 µg/mL
same,MIC of cefdinir (CDR),K. pneumoniae ESBL 8 #2; with inhibitor at 4 μg/mL,0.25 µg/mL
same,MIC of cefixime (CFM),K. pneumoniae ESBL 8 #2; with inhibitor at 4 μg/mL,0.5 µg/mL
same,MIC of ceftibuten (CTB),K. pneumoniae ESBL 8 #2; with inhibitor at 4 μg/mL,0.06 µg/mL
same,MIC of cefalexin (LEX),E. coli ESBL 5; with inhibitor at 1 μg/mL,8 µg/mL
same,MIC of cefdinir (CDR),E. coli ESBL 5; with inhibitor at 1 μg/mL,8 µg/mL
same,MIC of cefixime (CFM),E. coli ESBL 5; with inhibitor at 1 μg/mL,1 µg/mL
same,MIC of ceftibuten (CTB),E. coli ESBL 5; with inhibitor at 1 μg/mL,0.25 µg/mL
same,MIC of cefalexin (LEX),E. coli ESBL 5; with inhibitor at 2 μg/mL,2 µg/mL
same,MIC of cefdinir (CDR),E. coli ESBL 5; with inhibitor at 2 μg/mL,2 µg/mL
same,MIC of cefixime (CFM),E. coli ESBL 5; with inhibitor at 2 μg/mL,1 µg/mL
same,MIC of ceftibuten (CTB),E. coli ESBL 5; with inhibitor at 2 μg/mL,0.125 µg/mL
same,MIC of cefalexin (LEX),E. coli ESBL 5; with inhibitor at 4 μg/mL,2 µg/mL
same,MIC of cefdinir (CDR),E. coli ESBL 5; with inhibitor at 4 μg/mL,2 µg/mL
same,MIC of cefixime (CFM),E. coli ESBL 5; with inhibitor at 4 μg/mL,0.5 µg/mL
same,MIC of ceftibuten (CTB),E. coli ESBL 5; with inhibitor at 4 μg/mL,0.125 µg/mL
same,MIC of cefalexin (LEX),K. pneumoniae ESBL 7 #2; with inhibitor at 1 μg/mL,>32 µg/mL
same,MIC of cefdinir (CDR),K. pneumoniae ESBL 7 #2; with inhibitor at 1 μg/mL,>32 µg/mL
same,MIC of cefixime (CFM),K. pneumoniae ESBL 7 #2; with inhibitor at 1 μg/mL,8 µg/mL
same,MIC of ceftibuten (CTB),K. pneumoniae ESBL 7 #2; with inhibitor at 1 μg/mL,4 µg/mL
same,MIC of cefalexin (LEX),K. pneumoniae ESBL 7 #2; with inhibitor at 2 μg/mL,32 µg/mL
same,MIC of cefdinir (CDR),K. pneumoniae ESBL 7 #2; with inhibitor at 2 μg/mL,32 µg/mL
same,MIC of cefixime (CFM),K. pneumoniae ESBL 7 #2; with inhibitor at 2 μg/mL,8 µg/mL
same,MIC of ceftibuten (CTB),K. pneumoniae ESBL 7 #2; with inhibitor at 2 μg/mL,2 µg/mL
same,MIC of cefalexin (LEX),K. pneumoniae ESBL 7 #2; with inhibitor at 4 μg/mL,16 µg/mL
same,MIC of cefdinir (CDR),K. pneumoniae ESBL 7 #2; with inhibitor at 4 μg/mL,16 µg/mL
same,MIC of cefixime (CFM),K. pneumoniae ESBL 7 #2; with inhibitor at 4 μg/mL,1 µg/mL
same,MIC of ceftibuten (CTB),K. pneumoniae ESBL 7 #2; with inhibitor at 4 μg/mL,1 µg/mL
same,MIC of cefalexin (LEX),K. oxytoca 496 #2; with inhibitor at 1 μg/mL,0.25 µg/mL
same,MIC of cefdinir (CDR),K. oxytoca 496 #2; with inhibitor at 1 μg/mL,0.25 µg/mL
same,MIC of cefixime (CFM),K. oxytoca 496 #2; with inhibitor at 1 μg/mL,0.25 µg/mL
same,MIC of ceftibuten (CTB),K. oxytoca 496 #2; with inhibitor at 1 μg/mL,0.125 µg/mL
same,MIC of cefalexin (LEX),K. oxytoca 496 #2; with inhibitor at 2 μg/mL,0.25 µg/mL
same,MIC of cefdinir (CDR),K. oxytoca 496 #2; with inhibitor at 2 μg/mL,0.25 µg/mL
same,MIC of cefixime (CFM),K. oxytoca 496 #2; with inhibitor at 2 μg/mL,0.125 µg/mL
same,MIC of ceftibuten (CTB),K. oxytoca 496 #2; with inhibitor at 2 μg/mL,0.125 µg/mL
same,MIC of cefalexin (LEX),K. oxytoca 496 #2; with inhibitor at 4 μg/mL,0.06 µg/mL
same,MIC of cefdinir (CDR),K. oxytoca 496 #2; with inhibitor at 4 μg/mL,0.06 µg/mL
same,MIC of cefixime (CFM),K. oxytoca 496 #2; with inhibitor at 4 μg/mL,0.06 µg/mL
same,MIC of ceftibuten (CTB),K. oxytoca 496 #2; with inhibitor at 4 μg/mL,0.125 µg/mL
same,MIC of cefalexin (LEX),K. pneumoniae 319478; with inhibitor at 1 μg/mL,4 µg/mL
same,MIC of cefdinir (CDR),K. pneumoniae 319478; with inhibitor at 1 μg/mL,4 µg/mL
same,MIC of cefixime (CFM),K. pneumoniae 319478; with inhibitor at 1 μg/mL,2 µg/mL
same,MIC of ceftibuten (CTB),K. pneumoniae 319478; with inhibitor at 1 μg/mL,0.125 µg/mL
same,MIC of cefalexin (LEX),K. pneumoniae 319478; with inhibitor at 2 μg/mL,2 µg/mL
same,MIC of cefdinir (CDR),K. pneumoniae 319478; with inhibitor at 2 μg/mL,2 µg/mL
same,MIC of cefixime (CFM),K. pneumoniae 319478; with inhibitor at 2 μg/mL,2 µg/mL
same,MIC of ceftibuten (CTB),K. pneumoniae 319478; with inhibitor at 2 μg/mL,0.25 µg/mL
same,MIC of cefalexin (LEX),K. pneumoniae 319478; with inhibitor at 4 μg/mL,2 µg/mL
same,MIC of cefdinir (CDR),K. pneumoniae 319478; with inhibitor at 4 μg/mL,2 µg/mL
same,MIC of cefixime (CFM),K. pneumoniae 319478; with inhibitor at 4 μg/mL,1 µg/mL
same,MIC of ceftibuten (CTB),K. pneumoniae 319478; with inhibitor at 4 μg/mL,0.125 µg/mL
same,MIC of cefalexin (LEX),E. coli 2150; with inhibitor at 1 μg/mL,1 µg/mL
same,MIC of cefdinir (CDR),E. coli 2150; with inhibitor at 1 μg/mL,1 µg/mL
same,MIC of cefixime (CFM),E. coli 2150; with inhibitor at 1 μg/mL,0.5 µg/mL
same,MIC of ceftibuten (CTB),E. coli 2150; with inhibitor at 1 μg/mL,0.125 µg/mL
same,MIC of cefalexin (LEX),E. coli 2150; with inhibitor at 2 μg/mL,0.5 µg/mL
same,MIC of cefdinir (CDR),E. coli 2150; with inhibitor at 2 μg/mL,0.5 µg/mL
same,MIC of cefixime (CFM),E. coli 2150; with inhibitor at 2 μg/mL,0.5 µg/mL
same,MIC of ceftibuten (CTB),E. coli 2150; with inhibitor at 2 μg/mL,0.125 µg/mL
same,MIC of cefalexin (LEX),E. coli 2150; with inhibitor at 4 μg/mL,0.5 µg/mL
same,MIC of cefdinir (CDR),E. coli 2150; with inhibitor at 4 μg/mL,0.5 µg/mL
same,MIC of cefixime (CFM),E. coli 2150; with inhibitor at 4 μg/mL,0.25 µg/mL
same,MIC of ceftibuten (CTB),E. coli 2150; with inhibitor at 4 μg/mL,0.06 µg/mL
